Read-outs that look alike come from different tables or passages of the source.
Assays:
[1] = system: mitochondrial activity and cellular membranes; settings: reported by Wojcieszak et al.; cited from earlier work
human M1R = molecular target: T1, human M1R (Homo sapiens, UniProt P11229); experiment: biochemical; assay type: binding
T1 construct: host or cells: HEK293 (CRL-1573, ATCC), transient
T1 sequence (P11229 1-460): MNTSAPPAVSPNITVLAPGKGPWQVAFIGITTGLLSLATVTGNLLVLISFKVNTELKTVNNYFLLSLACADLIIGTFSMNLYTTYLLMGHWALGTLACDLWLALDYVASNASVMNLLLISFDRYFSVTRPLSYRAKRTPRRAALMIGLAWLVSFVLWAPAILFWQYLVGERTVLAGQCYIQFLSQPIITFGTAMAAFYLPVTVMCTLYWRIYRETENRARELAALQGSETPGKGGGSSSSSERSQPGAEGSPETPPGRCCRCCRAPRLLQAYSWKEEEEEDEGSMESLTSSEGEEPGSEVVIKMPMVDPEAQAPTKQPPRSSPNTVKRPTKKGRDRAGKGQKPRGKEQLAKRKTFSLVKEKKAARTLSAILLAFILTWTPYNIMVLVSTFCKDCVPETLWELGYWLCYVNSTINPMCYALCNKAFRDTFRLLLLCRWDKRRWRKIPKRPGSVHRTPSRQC
Method: (§1) Radioligand Competition Binding: Radioligand competition binding assays were conducted using membranes collected from transiently transfected HEK293 cells (P<20 from a procured stock, CRL-1573, ATCC, Manassas, Va., USA) as previously described (Chen, Y., et al. Drug Test Anal 11, 990-998). Briefly, cells ˜90% confluent in 10 cm plates were transfected with 5 μg human M1R, M2R, M3R, M4R or […] cDNA (cDNA resource center, Bloomsburg, Pa., USA) using a lipid-based method (LipoD293 reagent, SignaGen Laboratories, Rockville, Md., USA). Membranes were collected by centrifugation about 48 hours later and stored at −80° C. until used. […] After a 90-minute incubation at room temperature on a shaker, contents from the plates were rapidly filtered through GF/B fiberglass filter mats, pre-soaked with ice cold 50 mM Tris buffer (pH 7.4), using a Microbeta Filtermat-96 cell harvester (Perkin Elmer, Waltham, Mass., USA). Approximately 200 mL of ice cold, 50 mM Tris buffer was then vacuumed through filter mats to wash away unbound radioligand. Filter mats were dried on a hot plate and soaked in Betaplate (Perkin Elmer, Waltham, Mass., USA) scintillation fluid in plastic bags. Bags were sealed and placed in cassettes. Radioactivity was measured in a Microbeta2 Microplate Counter (Perkin Elmer, Waltham, Mass., USA), and counts per minute corresponding to each well on the plates were recorded. For full dose-response competition binding assays, increasing half-log unit concentrations of five unsubstituted PSCs were tested at M2Rs and M1Rs, with the same procedures described above.
(§2) Curve Fitting and Statistical Analyses: All data were analyzed by GraphPad 8.3.0 (San Diego, Calif., USA). Ki values were determined from data fit to both one- and two-site models. […] EC50 and IC50 values from functional assays were determined from data fit to the log(agonist) vs. response (three parameters) or log(inhibitor) vs. response (three parameters) model, respectively. Kb values were calculated from IC50 values using the Cheng-Prusoff equation with modification (see, e.g., Leff, P., and Dougall, I. G. (1993) Trends Pharmacol Sci 14, 110-112): Kb=IC50/((2+([A]/[A50])nH)1/nH−1)

human M2R [2] = molecular target: T2, human M2R (Homo sapiens, UniProt P08172); experiment: [3H]Scopolamine radioligand competition binding at M2R
T2 construct: host or cells: HEK293 (CRL-1573, ATCC), transient
T2 sequence (P08172 1-466): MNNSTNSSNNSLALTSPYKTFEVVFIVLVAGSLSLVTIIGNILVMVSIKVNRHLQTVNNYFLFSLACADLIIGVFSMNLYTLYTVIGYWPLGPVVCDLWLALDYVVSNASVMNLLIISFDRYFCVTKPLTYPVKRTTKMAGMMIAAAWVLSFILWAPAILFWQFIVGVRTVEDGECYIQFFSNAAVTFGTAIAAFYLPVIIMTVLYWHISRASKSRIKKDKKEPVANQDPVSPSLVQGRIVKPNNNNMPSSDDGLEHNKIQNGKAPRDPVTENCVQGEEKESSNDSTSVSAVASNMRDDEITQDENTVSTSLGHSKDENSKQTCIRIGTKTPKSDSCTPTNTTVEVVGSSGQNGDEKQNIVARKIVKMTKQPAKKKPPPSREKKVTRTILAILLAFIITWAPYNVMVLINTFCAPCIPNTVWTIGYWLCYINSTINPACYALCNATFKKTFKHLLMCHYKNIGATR
Method: as §1, §2

human M3R = molecular target: T3, human M3R (Homo sapiens, UniProt P20309); experiment: biochemical; assay type: binding; settings: estimate from 1 and 10 μM concentrations (N = 2); N.C. = <5% displacement of radioligand at 10 μM; read-out: estimated pKi at M3R (converted)
T3 construct: host or cells: HEK293 (CRL-1573, ATCC), transient
Method: as §1, §2

human M4R = molecular target: T4, human M4R (Homo sapiens, UniProt P08173); experiment: [3H]Scopolamine radioligand competition binding at M4R
T4 construct: host or cells: HEK293 (CRL-1573, ATCC), transient
T4 sequence (P08173 1-479): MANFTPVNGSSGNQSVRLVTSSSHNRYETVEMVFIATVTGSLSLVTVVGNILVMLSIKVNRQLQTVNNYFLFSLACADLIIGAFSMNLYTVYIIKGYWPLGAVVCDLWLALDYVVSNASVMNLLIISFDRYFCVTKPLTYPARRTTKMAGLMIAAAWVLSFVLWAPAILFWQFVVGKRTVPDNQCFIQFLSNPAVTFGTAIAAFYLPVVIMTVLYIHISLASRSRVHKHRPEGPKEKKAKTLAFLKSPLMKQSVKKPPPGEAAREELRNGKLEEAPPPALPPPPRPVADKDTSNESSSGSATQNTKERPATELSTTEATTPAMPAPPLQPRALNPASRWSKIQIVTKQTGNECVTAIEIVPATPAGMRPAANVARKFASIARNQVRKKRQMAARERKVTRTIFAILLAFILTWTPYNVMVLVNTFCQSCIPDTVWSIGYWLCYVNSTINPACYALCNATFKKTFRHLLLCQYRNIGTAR
Method: as §1, §2

human M5R = molecular target: T5, human M5R (Homo sapiens, UniProt P08912); experiment: [3H]Scopolamine radioligand competition binding at M5R
T5 construct: host or cells: HEK293 (CRL-1573, ATCC), transient
T5 sequence (P08912 1-532): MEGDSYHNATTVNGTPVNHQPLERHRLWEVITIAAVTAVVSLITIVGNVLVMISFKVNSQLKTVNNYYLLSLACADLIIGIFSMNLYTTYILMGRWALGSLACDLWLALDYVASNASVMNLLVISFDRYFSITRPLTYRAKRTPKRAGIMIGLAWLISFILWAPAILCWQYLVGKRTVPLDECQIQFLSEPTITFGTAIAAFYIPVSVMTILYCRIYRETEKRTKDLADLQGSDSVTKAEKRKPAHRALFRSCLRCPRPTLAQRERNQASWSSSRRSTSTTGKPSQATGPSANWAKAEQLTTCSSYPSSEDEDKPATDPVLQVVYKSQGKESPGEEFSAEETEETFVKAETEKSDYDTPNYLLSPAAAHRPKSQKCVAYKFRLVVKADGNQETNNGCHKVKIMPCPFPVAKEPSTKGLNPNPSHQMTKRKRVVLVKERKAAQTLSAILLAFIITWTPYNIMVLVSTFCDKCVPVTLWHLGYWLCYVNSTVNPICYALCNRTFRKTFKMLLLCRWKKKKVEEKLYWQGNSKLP
Method: as §1, §2

M2Rs = molecular target: T6, M2Rs (Homo sapiens, UniProt P08172); experiment: M2R β-arrestin recruitment; assay type: cell-based
T6 sequence (P08172 1-466): T2 sequence (P08172 1-466)
Text: Data are shown as normalized means (±SEM) of two, independent determinations, with oxotremorine tested at each concentration in duplicate and α-PHP tested in quadruplicate. [*Basal signaling is defined as the normalized RLU emitted by untreated cells.]

human M2R [3] = molecular target: T2, human M2R; experiment: M2R cAMP signaling (forskolin-stimulated cAMP, oxotremorine agonist); assay type: cell-based
Method: The M2R coupled to Gαi/o proteins, and its agonism functioned to decrease formation of the intracellular second messenger cyclic-adenosine-monophosphate (cAMP). […] In the presence of oxotremorine, an antagonist of the M2R would be expected to reverse the effects of the agonist, thereby increasing cAMP formation.
M2R cAMP Signaling: cAMP measurements were performed with the cAMP Hunter eXpress® CHRM2 CHO-K1 GPCR assay (Eurofins DiscoveRx, Fremont, Calif., USA) according to the manufacturer's protocol. Briefly, in the provided 96-well tissue culture-treated plate, 100 μL of human M2R expressing CHO-K1 cells were seeded in cell plating reagent and incubated (37° C., 5% CO2, 95% humidity) overnight. Cell plating reagent was replaced with 30 μL of cell assay buffer the next day. For agonist stimulation, cells were treated with increasing half-log unit concentrations of oxotremorine in the presence of 10 μM forskolin, followed by incubation for 30 minutes. A cAMP antibody, cAMP working detection solution and enzyme acceptor solution were then added according to the protocol, and the final chemiluminescent signals were detected by a Mithras LB 940 microplate reader (Berthold Technologies, Bad Wildbad, Germany). Antagonist tests were run by pretreating cells with increasing half-log unit concentrations of α-PHP, followed by incubation for one hour. Cells were then treated with EC80 concentration of oxotremorine (130 nM) and 10 μM forskolin. The same incubation and detection procedure used for agonist assays was used for the remaining steps.
as §2

human M1Rs = molecular target: T7, human M1Rs (Homo sapiens, UniProt P11229); experiment: M1R phosphoinositide hydrolysis (IP-One HTRF); assay type: cell-based
T7 construct: host or cells: HEK293 (CRL-1573, ATCC), transient
T7 sequence (P11229 1-460): T1 sequence (P11229 1-460)

[4] = 42 cases of intoxication, Beck et al. 2016; cited from earlier work
[5] = full dose-response [3H]Scopolamine competition binding, α-PPP and α-PBP interpolated, read-out: pKi at M1R (converted)
[6] = pKi at M2R, full dose-response [3H]Scopolamine competition binding, α-PPP and α-PBP interpolated
[7] = estimate from 1 and 10 μM concentrations (N = 2), N.C. = <5% displacement of radioligand at 10 μM, read-out: estimated pKi at M1R (converted)
[8] = estimated pKi at M2R, estimate from 1 and 10 μM concentrations (N = 2), N.C. = <5% displacement of radioligand at 10 μM

T3 sequence (P20309 whole entry): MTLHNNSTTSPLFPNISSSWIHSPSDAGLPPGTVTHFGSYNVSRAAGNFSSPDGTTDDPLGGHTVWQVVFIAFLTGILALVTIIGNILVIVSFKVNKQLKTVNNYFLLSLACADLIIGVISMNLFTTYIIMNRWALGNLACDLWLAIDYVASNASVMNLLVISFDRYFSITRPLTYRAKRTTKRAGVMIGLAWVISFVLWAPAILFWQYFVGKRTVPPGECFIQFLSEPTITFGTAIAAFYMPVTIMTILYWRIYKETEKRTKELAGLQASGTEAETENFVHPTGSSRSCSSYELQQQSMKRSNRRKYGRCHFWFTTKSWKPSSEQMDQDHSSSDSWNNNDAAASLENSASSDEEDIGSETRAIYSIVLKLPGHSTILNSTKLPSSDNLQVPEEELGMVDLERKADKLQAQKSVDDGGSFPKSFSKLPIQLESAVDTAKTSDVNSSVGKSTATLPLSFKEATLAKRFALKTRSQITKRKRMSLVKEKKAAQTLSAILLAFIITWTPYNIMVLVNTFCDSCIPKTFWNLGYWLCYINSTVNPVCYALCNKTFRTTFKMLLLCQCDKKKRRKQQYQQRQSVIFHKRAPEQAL

SMILES | Ki (human M1R; [5]) [µM] | Ki (human M3R) [µM] | Ki (human M2R [2]; [8]) [µM] | Ki (human M4R) [µM] | Ki (human M5R) [µM] | further results
CCCCCCC(C(=O)c1ccccc1)N1CCCC1 (stereo not drawn) [α-PV9, α-Pyrrolidinooctanophenone] | – | – | – | – | – | cytotoxicity (mitochondrial activity, cellular membrane damage) [1]: potently decreased mitochondrial activity, and severely damaged cellular membranes
CCC(C(=O)c1ccccc1)N1CCCC1 (stereo not drawn) [α-PBP, α-Pyrrolidinobutiophenone] | 75.9 | – | – | – | – | Ki (human M2R [2]; [6]): 39.8 µM
CCCC(C(=O)c1ccc2c(c1)OCO2)N1CCCC1 (centres unmarked) [MDPV, 3,4-Methylenedioxypyrovalerone] | – | 70.8 | 13.8 | 8.91 | 6.31 | Ki (human M1R; [7]): 8.71 µM; cytotoxicity (mitochondrial activity, cellular membrane damage) [1]: this effect was not observed
CCCCC(C(=O)c1ccc2c(c1)OCO2)N1CCCC1 (stereo not drawn) [MDPHP, 3,4-Methylenedioxy-α-pyrrolidinohexiophenone] | – | 25.7 | 5.01 | 12.9 | 7.94 | Ki (human M1R; estimate from 1 and 10 μM screens, read-out: estimated Ki at M1Rs): 3.63 µM
O=C1CCCN1CC#CCN1CCCC1 [oxotremorine, Oxotremorine] | – | – | – | – | – | pKi High at M1R (human M1R): 7.62±0.36; pKi Low at M1R (human M1R): 5.41±0.04; pEC50, β-arrestin recruitment (M2Rs): 5.71±0.11; pEC50, decrease of forskolin-stimulated cAMP production (human M2R [3]; 10 μM forskolin): 7.54±0.12; EC50 (human M2R [3]; 10 μM forskolin, read-out: EC50, decrease of forskolin-stimulated cAMP production): 0.029 µM; EC80, inhibition of cAMP formation (human M2R [3]; forskolin-stimulated): 0.13 µM; pKi High at M2R (human M2R [2]; two-site model): 7.92±0.40; pKi Low at M2R (human M2R [2]; two-site model): 6.15±0.10; EC80, IP1 production (human M1Rs): 0.5 µM; pEC, IP1 production (human M1Rs): 7.21±0.20
CCCCCC(C(=O)c1ccc2c(c1)OCO2)N1CCCC1 (stereo not drawn) [MDPHPP, 3,4-Methylenedioxy-α-pyrrolidinoheptaphenone] | – | 36.3 | 12 | 33.1 | 5.62 | Ki (human M1R; [7]): 6.03 µM
CCC(C(=O)c1ccc2c(c1)OCO2)N1CCCC1 (stereo not drawn) [MDPBP, 3,4-Methylenedioxy-α-pyrrolidinobutiophenone] | – | 14.5 | 12.6 | 10.2 | 18.2 | –
CC(C(=O)c1ccccc1)N1CCCC1 (stereo not drawn) [α-PPP, α-Pyrrolidinopropiophenone] | 195 | – | – | – | – | Ki (human M2R [2]; Ki at M2Rs, full dose-response, interpolated): 73 µM; Ki (human M2R [2]; [6]): 75.9 µM
CCCCCC(C(=O)c1ccccc1)N1CCCC1 (stereo not drawn) [α-PHPP, α-Pyrrolidinoheptaphenone] | 1.95 | 1.12 | – | 1.38 | 1.15 | Ki (human M2R [2]; [6]): 0.661 µM
CNC(C)C(=O)c1ccccc1 (centres unmarked) [methcathinone] | – | – | – | – | – | cytotoxicity (mitochondrial activity, cellular membrane damage) [1]: these toxic effects were not observed
CCCC(C(=O)c1ccccc1)N1CCCC1 (stereo not drawn) [α-PVP, α-Pyrrolidinopentiophenone] | 5.13 | 6.03 | – | 8.13 | 4.17 | fold increase in M2R affinity compared to α-PBP (human M2R [2]): 49 fold; fold increase in M2R affinity compared to α-PPP (human M2R [2]): 89 fold; Ki (human M2R [2]; Ki at M2Rs, full dose-response [3H]Scopolamine competition binding): 0.824 µM; patients presenting with tachycardia [4]: 80%
